Source: US20210277015A1, “OGA INHIBITOR COMPOUNDS” (Janssen Pharmaceutica NV, priority 2018, published 2021)
Blank lines part the entries; values can stand above or below the compound they belong to.

Columns and labels:
[1] = target: T1, recombinant human Meningioma Expressed Antigen 5 (MGEA5), also referred to as O-GlcNAcase (OGA) (Homo sapiens, UniProt O60502); test: OGA biochemical assay (inhibition of FM-GlcNAc hydrolysis, fluorescence); details: FM-GlcNAc substrate; for IC50: 6 h at room temperature, read-out: Enzymatic hOGA, pIC50 (converted); for Emax / Enzymatic Emax (%): maximal effect; for Emax: read-out: Enzymatic Emax (%)
T1 construct: Full length OGA enzyme was purchased at OriGene (cat #TP322411); purchased OriGene TP322411
T1 sequence (O60502 1-916): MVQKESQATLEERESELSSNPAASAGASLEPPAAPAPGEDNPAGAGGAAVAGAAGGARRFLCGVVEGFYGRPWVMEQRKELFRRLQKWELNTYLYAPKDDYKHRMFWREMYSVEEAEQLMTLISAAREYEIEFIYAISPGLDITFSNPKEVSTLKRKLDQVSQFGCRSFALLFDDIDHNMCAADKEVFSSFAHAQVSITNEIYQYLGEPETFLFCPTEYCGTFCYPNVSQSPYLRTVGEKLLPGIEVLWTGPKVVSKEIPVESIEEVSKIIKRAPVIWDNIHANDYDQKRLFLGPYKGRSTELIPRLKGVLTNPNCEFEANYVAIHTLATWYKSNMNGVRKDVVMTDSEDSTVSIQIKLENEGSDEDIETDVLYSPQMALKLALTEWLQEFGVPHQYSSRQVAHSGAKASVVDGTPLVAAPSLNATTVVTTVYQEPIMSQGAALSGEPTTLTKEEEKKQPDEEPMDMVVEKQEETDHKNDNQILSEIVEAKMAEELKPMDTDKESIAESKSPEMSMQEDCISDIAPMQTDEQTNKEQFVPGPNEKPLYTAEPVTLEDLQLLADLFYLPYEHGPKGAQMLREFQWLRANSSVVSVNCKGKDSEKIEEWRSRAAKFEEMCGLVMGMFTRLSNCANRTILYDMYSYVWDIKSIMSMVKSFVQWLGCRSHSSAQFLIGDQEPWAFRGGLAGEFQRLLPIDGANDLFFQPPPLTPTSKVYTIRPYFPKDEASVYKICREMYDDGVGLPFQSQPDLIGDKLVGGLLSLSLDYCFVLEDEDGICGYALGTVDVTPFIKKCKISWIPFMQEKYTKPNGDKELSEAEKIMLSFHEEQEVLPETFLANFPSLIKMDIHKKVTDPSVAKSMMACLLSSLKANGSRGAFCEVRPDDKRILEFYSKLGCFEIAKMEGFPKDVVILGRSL
Text: The assay is based on the inhibition of the hydrolysis of fluorescein mono-β-D-N-Acetyl-Glucosamine (FM-GlcNAc) (Mariappa et al. 2015, Biochem J 470:255) by the recombinant human Meningioma Expressed Antigen 5 (MGEA5), also referred to as O-GlcNAcase (OGA). The hydrolysis FM-GlcNAc (Marker Gene technologies, cat #M1485) results in the formation of β-D-N-glucosamineacetate and fluorescein. The fluorescence of the latter can be measured at excitation wavelength 485 nm and emission wavelength 538 nm. An increase in enzyme activity results in an increase in fluorescence signal. Full length OGA enzyme was purchased at OriGene (cat #TP322411). The enzyme was stored in 25 mM Tris.HCl, pH 7.3, 100 mM glycine, 10% glycerol at −20° C. Thiamet G and GlcNAcStatin were tested as reference compounds (Yuzwa et al. 2008 Nature Chemical Biology 4:483; Yuzwa et al. 2012 Nature Chemical Biology 8:393). The assay was performed in 200 mM Citrate/phosphate buffer supplemented with 0.005% Tween-20. 35.6 g Na2HPO4 2 H2O (Sigma, #C0759) were dissolved in 1 L water to obtain a 200 mM solution. 19.2 g citric acid (Merck, #1.06580) was dissolved in 1 L water to obtain a 100 mM solution. pH of the sodium phosphate solution was adjusted with the citric acid solution to 7.2. The buffer to stop the reaction consists of a 500 mM Carbonate buffer, pH 11.0. 734 mg FM-GlcNAc were dissolved in 5.48 mL DMSO to obtain a 250 mM solution and was stored at −20° C. OGA was used at a 2 nM concentration and FM-GlcNAc at a 100 uM final concentration. Dilutions were prepared in assay buffer.
50 nl of a compound dissolved in DMSO was dispensed on Black Proxiplate™ 384 Plus Assay plates (Perkin Elmer, #6008269) and 3 μl fl-OGA enzyme mix added subsequently. Plates were pre-incubated for 60 min at room temperature and then 2 μl FM-GlcNAc substrate mix added. […] Plates were briefly centrifuged for 1 min at 1000 rpm and incubate at room temperature for 6 h. To stop the reaction 5 μl STOP buffer were added and plates centrifuge again 1 min at 1000 rpm. Fluorescence was quantified in the Thermo Scientific Fluoroskan Ascent or the PerkinElmer EnVision with excitation wavelength 485 nm and emission wavelength 538 nm.
For analysis a best-fit curve is fitted by a minimum sum of squares method. From this an IC50 value and Hill coefficient was obtained. High control (no inhibitor) and low control (saturating concentrations of standard inhibitor) were used to define the minimum and maximum values.

OGA = target: T2, OGA (Homo sapiens, UniProt O60502); test: OGA cellular assay (ICC detection of O-GlcNAcylated proteins in HEK293 cells inducible for P301L mutant human Tau); assay type: cell-based; details: for Emax: HEK293, HEK293 cells inducible for P301L mutant human Tau; for Emax / Cellular Emax (%): maximum defined by Thiamet G at 200 uM; for EC50 / Cellular Emax (%): HEK293 cells inducible for P301L mutant human Tau; for EC50: 6 hours incubation, ICC O-GlcNAcylation, read-out: Cellular hOGA, pEC50 (converted)
T2 construct: endogenous in cells; host or cells: HEK293 cells inducible for P301L mutant human Tau (isoform 2N4R)
T2 sequence (O60502 1-916): T1 sequence (O60502 1-916)
Protocol: HEK293 cells inducible for P301L mutant human Tau (isoform 2N4R) were established at Janssen. Thiamet-G was used for both plate validation (high control) and as reference compound (reference EC50 assay validation). OGA inhibition is evaluated through the immunocytochemical (ICC) detection of O-GlcNAcylated proteins by the use of a monoclonal antibody (CTD110.6; Cell Signaling, #9875) detecting O-GlcNAcylated residues as previously described (Dorfmueller et al. 2010 Chemistry & biology, 17:1250). Inhibition of OGA will result in an increase of O-GlcNAcylated protein levels resulting in an increased signal in the experiment. Cell nuclei are stained with Hoechst to give a cell culture quality control and a rough estimate of immediate compounds toxicity, if any. ICC pictures are imaged with a Perkin Elmer Opera Phenix plate microscope and quantified with the provided software Perkin Elmer Harmony 4.1.
Cells were propagated in DMEM high Glucose (Sigma, #D5796) following standard procedures. 2 days before the cell assay cells are split, counted and seeded in Poly-D-Lysine (PDL) coated 96-wells (Greiner, #655946) plate at a cell density of 12,000 cells per cm^2 (4,000 cells per well) in 100 μl of Assay Medium (Low Glucose medium is used to reduce basal levels of GlcNAcylation) (Park et al. 2014 The Journal of biological chemistry 289:13519). At the day of compound test medium from assay plates was removed and replenished with 90 μl of fresh Assay Medium. 10 μl of compounds at a 10 fold final concentration were added to the wells. Plates were centrifuged shortly before incubation in the cell incubator for 6 hours. DMSO concentration was set to 0.2%. Medium is discarded by applying vacuum. For staining of cells medium was removed and cells washed once with 100 μl D-PBS (Sigma, #D8537). From next step onwards unless other stated assay volume was always 50 μl and incubation was performed without agitation and at room temperature. Cells were fixed in 50 μl of a 4% paraformaldehyde (PFA, Alpha aesar, #043368) PBS solution for 15 minutes at room temperature. […] Before analysis samples were washed 2 times manually for 5 minutes in ICC base buffer.
Imaging is performed using Perkin Elmer Phenix Opera using a water 20× objective and recording 9 fields per well. Intensity readout at 488 nm is used as a measure of O-GlcNAcylation level of total proteins in wells. To assess potential toxicity of compounds nuclei were counted using the Hoechst staining. IC50-values are calculated using parametric non-linear regression model fitting. As a maximum inhibition Thiamet G at a 200 uM concentration is present on each plate. In addition, a concentration response of Thiamet G is calculated on each plate.

SMILES: COc1cc(C[C@H]2CCN(C(C)c3nc4c(cc3F)CCO4)C2)cc(C)n1 (mixture of isomers) [Product 83]
- IC50 [1]: 5.01 nM
- Emax [1]: 102%
- Emax (OGA): 89%
- EC50 (OGA): 31.6 nM

SMILES: COc1cc(C[C@H]2CCN(C(C)c3ccc4c(n3)OCCC4)C2)cc(C)n1 (mixture of isomers) [Product 86]
- IC50 [1]: 158 nM
- Emax [1]: 101%
- Emax (OGA): 50%
- EC50 (OGA): 741 nM

SMILES: COc1cc(C[C@@H]2CCN(C(C)c3nc4c(cc3F)OCCO4)C2)cc(C)n1 (mixture of isomers) [Product 90]
- IC50 [1]: 12.6 nM
- Emax [1]: 101%
- Emax (OGA): 90%
- EC50 (OGA): 126 nM

SMILES: Cc1cc(CO[C@@H]2CCN(C(C)c3ccc4c(n3)OCCO4)C2)cc(C)n1 (mixture of isomers) [Product 115]
- IC50 [1]: 631 nM
- Emax [1]: 94%
- Emax (OGA): 9%
- EC50 (OGA): > 1000 nM

SMILES: Cc1cc(OC[C@H]2CCN(C(C)c3nc4c(cc3F)OCCO4)C2)cc(C)n1 (mixture of isomers) [Product 119]
- IC50 [1]: 100 nM
- Emax [1]: 100%
- Emax (OGA): 59%
- EC50 (OGA): 631 nM

SMILES: Cc1cc(C[C@H]2CN(C(C)c3ccc4c(n3)OCCO4)C[C@@H]2C)cc(C)n1 (mixture of isomers) [Product 60]
- IC50 [1]: 79.4 nM
- Emax [1]: 99%
- Emax (OGA): 44%
- EC50 (OGA): > 1000 nM

SMILES: Cc1cc(C[C@H]2CN(C(C)c3ccc4c(n3)OCCO4)C[C@@H]2C)cc(C)n1 (mixture of isomers) [Product 61]
- IC50 [1]: 126 nM
- Enzymatic Emax (%) [1]: 97%
- EC50 (OGA): 794 nM
- Cellular Emax (%) (OGA): 56%

SMILES: Cc1cc(O[C@@H]2CCN(C(C)c3ccc4c(n3)OCCO4)C2)cc(C)n1 (mixture of isomers) [Product 73]
- IC50 [1]: 79.4 nM
- Emax [1]: 99%
- Emax (OGA): 33%
- EC50 (OGA): > 1000 nM

SMILES: COc1cc(C[C@H]2CN(C(C)c3ccc4c(n3)OCCO4)C[C@@H]2C)cc(C)n1 (mixture of isomers) [Product 120]
- IC50 [1]: 158 nM
- Emax [1]: 100%
- Emax (OGA): 36%
- EC50 (OGA): > 1000 nM

SMILES: COc1cc(C[C@H]2CCN(C(C)c3cc4c(cc3F)OCCO4)C2)cc(C)n1 (single isomer, unassigned) [Product 10]
- IC50 [1]: 1580 nM
- Emax [1]: 88%
- EC50 (OGA): > 1000 nM
- Cellular Emax (%) (OGA): −5%

SMILES: COc1cc(C[C@H]2CCN(C(C)c3cc4c(cc3F)OCCO4)C2)cc(C)n1 (single isomer, unassigned) [Product 11]
- IC50 [1]: 25.1 nM
- Enzymatic Emax (%) [1]: 102%
- EC50 (OGA): 200 nM
- Cellular Emax (%) (OGA): 83%

SMILES: Cc1cc(O[C@@H]2CCN(C(C)c3nc4c(cc3F)CCO4)C2)cc(C)n1 (single isomer, unassigned) [Product 18]
- IC50 [1]: 158 nM
- Emax [1]: 98%
- Cellular Emax (%) (OGA): 42%

SMILES: Cc1cc(O[C@@H]2CCN(C(C)c3nc4c(cc3F)CCO4)C2)cc(C)n1 (single isomer, unassigned) [Product 19]
- IC50 [1]: 1.58 nM
- Enzymatic Emax (%) [1]: 97%
- EC50 (OGA): 18.6 nM
- Cellular Emax (%) (OGA): 94%

More lines, now with the values ahead:

- IC50 [1]: 7.94 nM
- Emax [1]: 98%
- Emax (OGA): 85%
- EC50 (OGA): 100 nM
SMILES: Cc1cc(C[C@@H]2CCN(C(C)c3nc4c(cc3F)OCCO4)C2)cc(C)n1 (mixture of isomers) [Product 79]

- IC50 [1]: 39.8 nM
- Emax [1]: 101%
- Emax (OGA): 71%
- EC50 (OGA): 398 nM
SMILES: Cc1cc(C[C@H]2CCN(C(C)c3cnc4c(c3)OCCN4)C2)cc(C)n1 (mixture of isomers) [Product 80]

- IC50 [1]: 158 nM
- Emax [1]: 97%
- Emax (OGA): 20%
- EC50 (OGA): > 1000 nM
SMILES: Cc1cc(C[C@@H]2CCN(C(C)c3cnc4c(c3)OCCO4)C2)cc(C)n1 (mixture of isomers) [Product 116]

- IC50 [1]: 15.8 nM
- Emax [1]: 99%
- Emax (OGA): 60%
- EC50 (OGA): 316 nM
SMILES: Cc1cc(C[C@@H]2CCN(C(C)c3cc4c(cc3F)NCCO4)C2)cc(C)n1 (mixture of isomers) [Product 117]

- IC50 [1]: 31.6 nM
- Emax [1]: 100%
- Emax (OGA): 49%
- EC50 (OGA): 631 nM
SMILES: Cc1cc(C[C@@H]2CCN(C(C)c3cnc4c(c3)OCCN4)C2)cc(C)n1 (mixture of isomers) [Product 118]

- IC50 [1]: 10 nM
- Emax [1]: 101%
- Emax (OGA): 81%
- EC50 (OGA): 251 nM
SMILES: COc1cc(C[C@H]2CCN([C@@H](C)c3cc4c(cc3F)NCCO4)C2)cc(C)n1 (racemic) [Product 82]

- IC50 [1]: 50.1 nM
- Emax [1]: 103%
- Emax (OGA): 74%
- EC50 (OGA): 126 nM
SMILES: Cc1cc(C[C@H]2CCN([C@@H](C)c3ccc4c(c3)OCC4)C2)cc(C)n1 (single isomer, unassigned) [Product 14]
